Assays:
Assay type in all cases: in vivo
[1] = tested on: Lolium multiflorum; test: Pre-emergence herbicidal effect; details: visual score after 3 weeks
Description: (§1) Seeds of monocotyledonous and dicotyledonous weed plants and crop plants are laid out in wood-fibre pots in sandy loam and covered with soil. The compounds according to the invention formulated in the form of wettable powders (WP) or as emulsion concentrates (EC) are then applied as aqueous suspension or emulsion at a water application rate of 600 to 800 l/ha (converted) with the addition of 0.2% wetting agent to the surface of the covering soil. After the treatment, the pots are placed in a greenhouse and kept under good growth conditions for the trial plants. The damage to the test plants is scored visually after a test period of 3 weeks by comparison with untreated controls (herbicidal activity in percent (%): 100% activity=the plants have died, 0% activity=like control plants).

[2] = tested on: Avena fatua; test: Pre-emergence herbicidal effect; details: visual score after 3 weeks
Description: as §1

[3] = tested on: Setaria viridis; test: Pre-emergence herbicidal effect; details: visual score after 3 weeks
Description: as §1

[4] = tested on: Alopecurus myosuroides; test: Pre-emergence herbicidal effect; details: visual score after 3 weeks
Description: as §1

[5] = tested on: Echinochloa crus-galli; test: Pre-emergence herbicidal effect; details: visual score after 3 weeks
Description: as §1

[6] = tested on: Lolium multiflorum; test: Post-emergence herbicidal effect; details: visual assessment after about 3 weeks
Experimental: (§2) Seeds of monocotyledonous and dicotyledonous weed and crop plants are laid out in sandy loam in wood-fibre pots, covered with soil and cultivated in a greenhouse under good growth conditions. 2 to 3 weeks after sowing, the test plants are treated at the one-leaf stage. The compounds according to the invention, formulated in the form of wettable powders (WP) or as emulsion concentrates (EC), are then sprayed as aqueous suspension or emulsion at a water application rate of 600 to 800 l/ha (converted) with the addition of 0.2% of wetting agent onto the green parts of the plants. After the test plants have been left to stand in the greenhouse under optimal growth conditions for about 3 weeks, the action of the preparations is assessed visually in comparison to untreated controls (herbicidal action in percent (%): 100% activity=the plants have died, 0% activity=like control plants).

[7] = tested on: Setaria viridis; test: Post-emergence herbicidal effect; details: visual assessment after about 3 weeks
Experimental: as §2

[8] = tested on: Alopecurus myosuroides; test: Post-emergence herbicidal effect; details: visual assessment after about 3 weeks
Experimental: as §2

[9] = tested on: Echinochloa crus-galli; test: Post-emergence herbicidal effect; details: visual assessment after about 3 weeks
Experimental: as §2

[10] = tested on: Avena fatua; test: Post-emergence herbicidal effect; details: visual assessment after about 3 weeks
Experimental: as §2

Structure (SMILES) | Pre-emergence effectiveness LOLMU ([1]; 320 g/ha) [%] | Pre-emergence effectiveness AVEFA ([2]; 320 g/ha) [%] | Pre-emergence effectiveness SETVI ([3]; 80 g/ha) [%] | Pre-emergence effectiveness SETVI ([3]; 320 g/ha) [%] | Pre-emergence effectiveness ALOMY ([4]; 320 g/ha) [%] | Pre-emergence effectiveness ECHCG ([5]; 80 g/ha) [%] | Pre-emergence effectiveness ECHCG ([5]; 320 g/ha) [%] | Post-emergence effectiveness LOLMU ([6]; 20 g/ha) [%] | Post-emergence effectiveness LOLMU ([6]; 80 g/ha) [%] | Post-emergence effectiveness SETVI ([7]; 20 g/ha) [%] | Post-emergence effectiveness SETVI ([7]; 80 g/ha) [%] | Post-emergence effectiveness ALOMY ([8]; 80 g/ha) [%] | Post-emergence effectiveness ECHCG ([9]; 20 g/ha) [%] | Post-emergence effectiveness ECHCG ([9]; 80 g/ha) [%] | Pre-emergence effectiveness LOLMU ([1]; 80 g/ha) [%] | Pre-emergence effectiveness AVEFA ([2]; 80 g/ha) [%] | Pre-emergence effectiveness ALOMY ([4]; 80 g/ha) [%] | Post-emergence effectiveness AVEFA ([10]; 20 g/ha) [%] | Post-emergence effectiveness AVEFA ([10]; 80 g/ha) [%] | Post-emergence effectiveness ALOMY ([8]; 20 g/ha) [%]
COCC1CCC2(C1)NC(=O)C(c1c(C)cc(C#CC3CC3)cc1C)=C2O (mixture of isomers) [Example I-14] | 100 | 80 | 90 | 90 | 100 | 100 | 100 | 90 | 90 | 90 | 90 | 80 | 90 | 100 |  |  |  |  |  | 
CC#Cc1cc(C)c(C2=C(O)C3(CCC(COC)C3)NC2=O)c(CC)c1 (centres unmarked) [Example I-10] | 100 | 100 | 80 | 100 | 100 | 100 | 100 | 100 | 100 | 90 | 100 | 100 | 100 | 100 | 100 | 80 | 90 | 100 | 100 | 100
CC#Cc1cc(CC)c(C2=C(OC(=O)C(C)C)C3(CCC(OCCOC)CC3)NC2=O)c(CC)c1 (centres unmarked) [Example Ia-13] | 100 | 100 | 100 | 100 | 100 | 100 | 100 |  |  |  | 80 |  | 80 | 100 | 100 | 80 | 100 |  |  | 
CC#Cc1cc(C)c(C2=C(OS(C)(=O)=O)C3(CCC(COC)C3)NC2=O)c(CC)c1 (centres unmarked) [Example Ia-16] | 90 |  | 90 | 90 | 90 | 90 | 100 |  |  |  |  |  |  |  |  |  | 90 |  |  | 
COCC1CCC2(C1)NC(=O)C(c1c(C)cc(C#CC3CC3)cc1C)=C2O (centres unmarked) [Example I-13] | 90 |  | 90 | 100 | 100 | 100 | 100 |  | 90 | 90 | 90 | 80 | 90 | 90 |  |  |  |  |  | 
CC#Cc1cc(C)c(C2=C(OC(=O)C(C)C)C3(CCC(COC)C3)NC2=O)c(CC)c1 (centres unmarked) [Example Ia-6] | 100 | 90 | 100 | 100 | 100 | 100 | 100 | 90 | 90 |  | 100 | 100 | 100 | 100 | 100 | 90 | 100 |  |  | 
CC#Cc1cc(C)c(C2=C(OC(=O)C(C)C)C3(CCC(COC)C3)NC2=O)c(CC)c1 (centres unmarked) [Example Ia-9] |  |  |  |  |  |  |  | 90 | 90 | 100 | 100 | 100 | 100 | 100 |  |  |  | 90 | 90 | 100
CCc1cc(C#CC2CC2)cc(C)c1C1=C(OC(=O)C(C)C)C2(CCC(COC)C2)NC1=O (centres unmarked) [Example Ia-11] | 100 | 80 | 100 | 100 | 100 | 100 | 100 |  | 90 | 80 | 90 | 90 | 100 | 100 | 100 |  | 100 |  |  | 
CC#Cc1cc(C)c(C2=C(OC(=O)C(C)C)C3(CCC(COC)C3)NC2=O)c(CC)c1 (centres unmarked) [Example Ia-7] |  |  | 100 |  |  | 100 |  |  | 100 |  | 80 | 100 | 90 | 100 | 100 |  | 100 |  |  | 
